{"source": "patent US20080319015A1", "about": "“Insect Repellent Mixture” (priority 2005, published 2008)", "origin": "cited, not measured here", "tested_on": "biting mosquitoes", "conditions": "proportion of about 10% by weight in a formulation", "data": [{"compound": "CCCCN(CCC(=O)OCC)C(C)=O", "note": "[ethyl butylacetylaminopropionate, ethyl 3-(N-n-butyl-N-acetylamino)propionate]", "values": [{"measurement": "protection times", "result": "up to 4 hours"}]}]}
